# In patent publication US11787785B2 (NOVARTIS AG, priority 2021, dated 2023):
# Target: T1, WIZ protein (HiBit-WIZ fusion protein) (Homo sapiens, UniProt O95785+Q96SW2)
# T1 construct: expressed in transfected cells
# Assay: Quantification of WIZ protein levels in HiBit tag fusion protein assay (WIZ HiBit assay in 293T cells)
# Type: cell-based
# Details: for Dmax at 25 µM / remaining activity at 25 µM: HEK-293T, 293T cells; for Dmax at 25 µM: 100 − Amax, read-out: % degradation of WIZ (100 − Amax); for remaining activity at 25 µM: DMSO-normalized, curve-fitted percentage of WIZ-HiBit remaining at 25 uM, read-out: WIZ Amax; for DC50: WIZ HiBit assay in 293T cells, 10-point, 5-fold dose response, highest concentration 25 μM, about 18 hours, read-out: WIZ AC50
# Outline: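 Luminescence after LgBit complementation quantified remaining HiBit-WIZ in lysates of single-copy stable 293T lines. Cells dosed ~18 h at 37 °C with 10-point, 5-fold dilutions (highest 25 μM); DMSO set to 100%, fitted curve gave % remaining at 25 μM (Amax).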
# T1 sequence (O95785 whole entry, the tested form may be a part): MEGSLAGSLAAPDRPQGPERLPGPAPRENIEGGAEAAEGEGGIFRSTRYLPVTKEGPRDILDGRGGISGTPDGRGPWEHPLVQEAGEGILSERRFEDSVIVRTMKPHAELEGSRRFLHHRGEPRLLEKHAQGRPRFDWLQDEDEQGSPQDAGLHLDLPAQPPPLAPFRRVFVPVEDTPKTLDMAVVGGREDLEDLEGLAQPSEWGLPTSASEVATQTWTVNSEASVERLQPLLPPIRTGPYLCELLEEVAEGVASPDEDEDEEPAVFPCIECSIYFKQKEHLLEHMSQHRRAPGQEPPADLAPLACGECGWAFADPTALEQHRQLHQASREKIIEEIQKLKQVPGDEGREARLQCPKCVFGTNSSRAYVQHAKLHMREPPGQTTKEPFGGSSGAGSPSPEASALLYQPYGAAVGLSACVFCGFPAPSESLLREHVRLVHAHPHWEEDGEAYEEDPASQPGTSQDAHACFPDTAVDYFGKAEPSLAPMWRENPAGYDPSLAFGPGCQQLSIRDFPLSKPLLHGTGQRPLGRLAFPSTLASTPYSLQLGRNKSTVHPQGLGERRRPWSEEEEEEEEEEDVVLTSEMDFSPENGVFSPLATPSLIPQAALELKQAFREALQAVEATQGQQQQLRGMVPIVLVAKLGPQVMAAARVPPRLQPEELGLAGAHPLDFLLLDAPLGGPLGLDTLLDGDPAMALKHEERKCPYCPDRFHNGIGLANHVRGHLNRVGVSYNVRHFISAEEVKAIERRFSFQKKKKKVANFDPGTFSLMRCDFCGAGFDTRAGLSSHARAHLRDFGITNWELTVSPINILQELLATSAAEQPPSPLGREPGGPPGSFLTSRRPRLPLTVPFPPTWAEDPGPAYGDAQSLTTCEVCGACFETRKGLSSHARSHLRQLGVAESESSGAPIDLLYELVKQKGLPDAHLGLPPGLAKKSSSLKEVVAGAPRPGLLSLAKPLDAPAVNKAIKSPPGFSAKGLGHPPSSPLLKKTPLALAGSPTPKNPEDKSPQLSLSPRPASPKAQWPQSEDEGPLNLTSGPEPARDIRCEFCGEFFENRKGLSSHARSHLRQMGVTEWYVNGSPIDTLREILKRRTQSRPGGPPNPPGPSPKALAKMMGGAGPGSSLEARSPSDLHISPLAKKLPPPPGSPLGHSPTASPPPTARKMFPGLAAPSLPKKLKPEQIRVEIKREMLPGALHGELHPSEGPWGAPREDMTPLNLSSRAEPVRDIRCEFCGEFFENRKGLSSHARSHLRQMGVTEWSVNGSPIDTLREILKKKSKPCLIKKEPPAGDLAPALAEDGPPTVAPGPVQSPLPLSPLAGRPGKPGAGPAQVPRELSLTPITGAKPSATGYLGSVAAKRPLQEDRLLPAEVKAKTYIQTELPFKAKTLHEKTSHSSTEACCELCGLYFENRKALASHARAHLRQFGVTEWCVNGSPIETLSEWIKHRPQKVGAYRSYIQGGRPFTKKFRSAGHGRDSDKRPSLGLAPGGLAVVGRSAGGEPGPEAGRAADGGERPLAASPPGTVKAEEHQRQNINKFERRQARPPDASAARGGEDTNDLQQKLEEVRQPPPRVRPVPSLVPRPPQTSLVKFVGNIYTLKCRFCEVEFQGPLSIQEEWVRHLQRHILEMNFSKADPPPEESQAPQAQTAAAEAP
# T1 sequence (Q96SW2 whole entry, the tested form may be a part): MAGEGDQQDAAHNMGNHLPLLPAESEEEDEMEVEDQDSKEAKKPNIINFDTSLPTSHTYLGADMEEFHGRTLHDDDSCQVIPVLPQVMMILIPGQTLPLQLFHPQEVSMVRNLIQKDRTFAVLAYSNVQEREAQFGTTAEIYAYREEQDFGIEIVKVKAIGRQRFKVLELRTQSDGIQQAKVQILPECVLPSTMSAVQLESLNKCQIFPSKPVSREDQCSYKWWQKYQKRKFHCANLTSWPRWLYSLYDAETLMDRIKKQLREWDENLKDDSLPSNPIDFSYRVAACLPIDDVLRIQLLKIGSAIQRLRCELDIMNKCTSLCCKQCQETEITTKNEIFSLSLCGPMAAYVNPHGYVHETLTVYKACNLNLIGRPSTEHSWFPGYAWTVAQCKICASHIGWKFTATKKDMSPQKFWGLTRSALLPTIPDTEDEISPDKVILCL
# T1 sequence (Q16531 whole entry partner, the tested form may be a part): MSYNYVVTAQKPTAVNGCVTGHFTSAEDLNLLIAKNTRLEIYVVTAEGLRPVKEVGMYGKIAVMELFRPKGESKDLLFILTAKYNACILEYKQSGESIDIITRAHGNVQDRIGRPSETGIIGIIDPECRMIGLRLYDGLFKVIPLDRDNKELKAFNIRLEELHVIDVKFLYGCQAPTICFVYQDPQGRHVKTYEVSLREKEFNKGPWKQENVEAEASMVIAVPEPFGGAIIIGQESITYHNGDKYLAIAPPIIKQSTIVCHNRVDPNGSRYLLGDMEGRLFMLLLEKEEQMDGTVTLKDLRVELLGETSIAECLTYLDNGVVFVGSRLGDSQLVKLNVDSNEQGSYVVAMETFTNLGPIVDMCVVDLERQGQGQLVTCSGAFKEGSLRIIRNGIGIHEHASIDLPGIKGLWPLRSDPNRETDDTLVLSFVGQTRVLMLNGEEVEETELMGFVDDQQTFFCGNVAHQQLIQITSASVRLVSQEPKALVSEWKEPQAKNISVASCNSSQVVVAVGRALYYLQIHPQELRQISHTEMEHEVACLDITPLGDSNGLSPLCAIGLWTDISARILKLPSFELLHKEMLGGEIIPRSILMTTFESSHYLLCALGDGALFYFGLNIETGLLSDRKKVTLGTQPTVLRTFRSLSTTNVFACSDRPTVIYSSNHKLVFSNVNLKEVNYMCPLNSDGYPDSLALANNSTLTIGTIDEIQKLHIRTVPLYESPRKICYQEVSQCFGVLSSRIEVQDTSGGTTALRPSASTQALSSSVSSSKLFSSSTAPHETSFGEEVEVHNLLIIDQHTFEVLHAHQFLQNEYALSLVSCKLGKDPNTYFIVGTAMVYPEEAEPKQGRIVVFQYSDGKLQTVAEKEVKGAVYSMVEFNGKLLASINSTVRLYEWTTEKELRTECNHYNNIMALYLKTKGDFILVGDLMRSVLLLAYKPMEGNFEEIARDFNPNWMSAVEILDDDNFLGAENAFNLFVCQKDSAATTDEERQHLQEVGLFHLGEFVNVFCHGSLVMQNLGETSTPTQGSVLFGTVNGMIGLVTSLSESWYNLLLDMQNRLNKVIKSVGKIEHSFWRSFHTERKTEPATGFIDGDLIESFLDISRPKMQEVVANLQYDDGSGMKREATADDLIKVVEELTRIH
Dmax at 25 µM [%],remaining activity at 25 µM [%],DC50 [nM],Structure (SMILES)
86,14,118,"CC(C)CN1CC[C@@H](Cc2ccn3ncc(-n4cc(F)c(=O)[nH]c4=O)c3c2)C[C@@H]1C [Example 349, 5-fluoro-1-(5-(((2S,4R)-1-isobutyl-2-methylpiperidin-4-yl)methyl)pyrazolo[1,5-a]pyridin-3-yl)pyrimidine-2,4(1H,3H)-dione]"
69,31,13,"Cc1c(CC2CCN(CC3CCCCC3)CC2)ccn2ncc(N3CCC(=O)NC3=O)c12 [Example 127, 1-(5-((1-(cyclohexylmethyl)piperidin-4-yl)methyl)-4-methylpyrazolo[1,5-a]pyridin-3-yl)dihydropyrimidine-2,4(1H,3H)-dione]"
68,32,90,Cn1nccc1CN1CCC(Cc2ccn3ncc(N4CCC(=O)NC4=O)c3c2)CC1 [Example 114]
78,22,193,C[C@H]1CN(Cc2ccn3ncc(N4CCC(=O)NC4=O)c3c2)CCN1CCC1CCOCC1 [Example 206]
83,17,38,CC(C)S(=O)(=O)N1CCC(Cc2ccn3ncc(N4CCC(=O)NC4=O)c3c2)CC1 [Example 85]
81,19,23,O=C1CCN(c2cnn3ccc(CN4CCN(CC5CCCC5)CC4)cc23)C(=O)N1 [Example 159]
80,20,201,"O=C1CCN(c2cnn3ccc(CC4CCN(CC(F)(F)F)CC4)cc23)C(=O)N1 [Example 30, 1-(5-((1-(2,2,2-trifluoroethyl)piperidin-4-yl)methyl)pyrazolo[1,5-a]pyridin-3-yl)dihydropyrimidine-2,4(1H,3H)-dione]"
76,24,40,"O=C1CCN(c2cnn3ccc(CC4CCN(Cc5cccc(C(F)(F)F)c5)CC4)cc23)C(=O)N1 [Example 25, 1-(5-((1-(3-(trifluoromethyl)benzyl)piperidin-4-yl)methyl)pyrazolo[1,5-a]pyridin-3-yl)dihydropyrimidine-2,4(1H,3H)-dione]"
73,27,945,"COCCN1CCC(Cc2ccn3ncc(N4CCC(=O)NC4=O)c3c2)CC1 [Example 34, 1-(5-((1-(2-methoxyethyl)piperidin-4-yl)methyl)pyrazolo[1,5-a]pyridin-3-yl)dihydropyrimidine-2,4(1H,3H)-dione]"
60,40,580,C[C@H]1CN(Cc2ccn3ncc(N4CCC(=O)NC4=O)c3c2)CCN1Cc1cccnc1 [Example 208]
69,31,25,"O=C1CCN(c2cnn3ccc(CC4CCCN(CC5CCCCC5)CC4)cc23)C(=O)N1 (stereo not drawn) [Example 272, 1-(5-((1-(cyclohexylmethyl)azepan-4-yl)methyl)pyrazolo[1,5-a]pyridin-3-yl)dihydropyrimidine-2,4(1H,3H)-dione]"
40,60,589,"CC(C)CN1CCN(Cc2ccn3ncc(N4CCC(=O)NC4=O)c3c2)CC1(C)C [Example 233, 1-(5-((4-isobutyl-3,3-dimethylpiperazin-1-yl)methyl)pyrazolo[1,5-a]pyridin-3-yl)dihydropyrimidine-2,4(1H,3H)-dione]"
88,12,8,"C[C@H]1C[C@H](Cc2ccn3ncc(N4CCC(=O)NC4=O)c3c2)CCN1C1CCC1 [Example 280, 1-(5-(((2S,4R)-1-cyclobutyl-2-methylpiperidin-4-yl)methyl)pyrazolo[1,5-a]pyridin-3-yl)dihydropyrimidine-2,4(1H,3H)-dione]"
66,34,1430,"O=C1CCN(c2cnn3ccc(CC4CCN(CCc5c[nH]cn5)CC4)cc23)C(=O)N1 [Example 120, 1-(5-((1-(2-(1H-imidazol-4-yl)ethyl)piperidin-4-yl)methyl)pyrazolo[1,5-a]pyridin-3-yl)dihydropyrimidine-2,4(1H,3H)-dione]"
74,26,27,"O=C1CCN(c2cnn3ccc(CC4CCN(CC(F)(F)C(F)F)CC4)cc23)C(=O)N1 [Example 31, 1-(5-((1-(2,2,3,3-tetrafluoropropyl)piperidin-4-yl)methyl)pyrazolo[1,5-a]pyridin-3-yl)dihydropyrimidine-2,4(1H,3H)-dione]"
85,15,124,"CC(C)CN1CCN(Cc2ccn3ncc(-n4ccc(=O)[nH]c4=O)c3c2)C[C@@H]1C [Example 357, (S)-1-(5-((4-isobutyl-3-methylpiperazin-1-yl)methyl)pyrazolo[1,5-a]pyridin-3-yl)pyrimidine-2,4(1H,3H)-dione]"

Dmax at 25 µM [%],remaining activity at 25 µM [%],DC50 [nM],Structure (SMILES)
90,10,28,"C[C@H]1C[C@H](Cc2ccn3ncc(-n4cc(F)c(=O)[nH]c4=O)c3c2)CCN1CC1CCC(F)(F)CC1 [Example 350, 1-(5-(((2S,4R)-1-((4,4-difluorocyclohexyl)methyl)-2-methylpiperidin-4-yl)methyl)pyrazolo[1,5-a]pyridin-3-yl)-5-fluoropyrimidine-2,4(1H,3H)-dione]"
79,21,44,CC(C)(C)CN1CCC(Cc2ccn3ncc(N4CCC(=O)NC4=O)c3c2)CC1 [Example 110]
82,18,23,"O=C1CCN(c2cnn3ccc(CC4CCN(CC5CC(F)(F)C5)CC4)cc23)C(=O)N1 [Example 32, 1-(5-((1-((3,3-difluorocyclobutyl)methyl)piperidin-4-yl)methyl)pyrazolo[1,5-a]pyridin-3-yl)dihydropyrimidine-2,4(1H,3H)-dione]"
77,23,44,"C[C@H]1CC(F)(Cc2ccn3ncc(N4CCC(=O)NC4=O)c3c2)CCN1CC1CCC(F)(F)CC1 (single isomer, unassigned) [Example 308]"
84,16,18,"O=C1CCN(c2cnn3ccc(CC4CCN(CCC5CCCC5)CC4)cc23)C(=O)N1 [Example 16, 1-(5-((1-(2-cyclopentylethyl)piperidin-4-yl)methyl)pyrazolo[1,5-a]pyridin-3-yl)dihydropyrimidine-2,4(1H,3H)-dione]"
94,6,43,"CO[C@H]1CC[C@H](CN2CCC(Cc3ccn4ncc(N5CCC(=O)NC5=O)c4c3)CC2)CC1 [Example 64, 1-(5-((1-(((1r,4r)-4-methoxycyclohexyl)methyl)piperidin-4-yl)methyl)pyrazolo[1,5-a]pyridin-3-yl)dihydropyrimidine-2,4(1H,3H)-dione]"
82,18,25,O=C1CCN(c2cnn3ccc(CN4CCN(CC5CCCCCC5)CC4)cc23)C(=O)N1 [Example 158]
38,62,370,O=C1CCN(c2cnn3ccc(CC4CCN(Cc5cccc(F)c5)C4)cc23)C(=O)N1 (stereo not drawn) [Example 131]
75,25,212,C[C@@H]1CN(CC2CCOCC2)CCN1Cc1ccn2ncc(N3CCC(=O)NC3=O)c2c1 [Example 219]
55,45,704,"CC[C@H]1CN(Cc2ccn3ncc(N4CCC(=O)NC4=O)c3c2)CCN1CC(C)C [Example 228, (S)-1-(5-((3-ethyl-4-isobutylpiperazin-1-yl)methyl)pyrazolo[1,5-a]pyridin-3-yl)dihydropyrimidine-2,4(1H,3H)-dione]"
19,81,2620,C[C@@H]1CN(Cc2ccn3ncc(N4CCC(=O)NC4=O)c3c2)CCN1Cc1cccnc1 [Example 215]
44,56,370,"CC(C)CN1CC[C@H](Cc2ccn3ncc(N4CCC(=O)NC4=O)c3c2)C[C@@H]1C(F)(F)F (relative stereo) [Example 312, (cis)-1-(5-((1-isobutyl-2-(trifluoromethyl)piperidin-4-yl)methyl)pyrazolo[1,5-a]pyridin-3-yl)dihydropyrimidine-2,4(1H,3H)-dione]"
75,25,105,"O=C1CCN(c2cnn3ccc(CC4CCN(Cc5ccncc5)CC4)cc23)C(=O)N1 [Example 28, 1-(5-((1-(pyridin-4-ylmethyl)piperidin-4-yl)methyl)pyrazolo[1,5-a]pyridin-3-yl)dihydropyrimidine-2,4(1H,3H)-dione]"
86,14,400,"Cc1cn(-c2cnn3ccc(C[C@@H]4CCN(CC5CC5)[C@@H](C)C4)cc23)c(=O)[nH]c1=O [Example 348, 1-(5-(((2S,4R)-1-(cyclopropylmethyl)-2-methylpiperidin-4-yl)methyl)pyrazolo[1,5-a]pyridin-3-yl)-5-methylpyrimidine-2,4(1H,3H)-dione]"
79,20,31,C[C@H]1C[C@H](Cc2ccn3ncc(N4CCC(=O)NC4=O)c3c2)CCN1S(=O)(=O)C1CC1 [Example 286]
82,18,24,C[C@H]1CN(Cc2ccn3ncc(N4CCC(=O)NC4=O)c3c2)CCN1CC1CC(F)(F)C1 [Example 205]
